Experimental data as given in ChEMBL document CHEMBL1201862, “PubChem BioAssay data set” (2004).
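Following 48 hours of exposure in 96-well plates, responses at five concentrations were used to interpolate endpoints linearly. Abbreviation: GI50, concentration required for 50% inhibition of growth.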 Active and inactive are the calls of the source. Cut-off read from the data, not from the text of the source: active = GI50 up to about 1.1 µM and inactive = higher.

Key:
Assay in all cases: growth of human tumour cells (NCI), 48 h
BT-549 = tested on: BT-549
HCT-15 = tested on: HCT-15
HOP-62 = tested on: HOP-62
HT-29 = tested on: HT-29
KM12 = tested on: KM12
M14 = tested on: M14
MDA-MB-231 = tested on: MDA-MB-231
MDA-N = tested on: MDA-N
MOLT-4 = tested on: MOLT-4
NCI-H23 = tested on: NCI-H23
NCI-H460 = tested on: NCI-H460
OVCAR-3 = tested on: OVCAR-3
OVCAR-4 = tested on: OVCAR-4
RXF 393 = tested on: RXF 393
SF-539 = tested on: SF-539
SK-MEL-28 = tested on: SK-MEL-28
SK-OV-3 = tested on: SK-OV-3
SN12C = tested on: SN12C
UACC-257 = tested on: UACC-257
UO-31 = tested on: UO-31

`O=S(=O)(O)CCCc1cccc2ccccc12` was tested, and the GI50 (BT-549) was > 100 µM (inactive), the GI50 (HCT-15) was greater than 100 µM and the GI50 (HOP-62) was > 100 µM (inactive). For the same molecule, the GI50 (HT-29) was > 100 µM (inactive), the GI50 (KM12) was > 100 µM (inactive) and the GI50 (M14) was > 100 µM (inactive). For the same molecule, the GI50 (MDA-MB-231) was > 100 µM (inactive), the GI50 (MDA-N) was > 100 µM (inactive) and the GI50 (MOLT-4) was > 100 µM (inactive). For the same molecule, the GI50 (NCI-H23) was > 100 µM (inactive), the GI50 (NCI-H460) was > 100 µM (inactive) and the GI50 (OVCAR-3) was > 100 µM (inactive). For the same molecule, the GI50 (OVCAR-4) was > 100 µM (inactive), the GI50 (RXF 393) was > 100 µM (inactive) and the GI50 (SF-539) was > 100 µM (inactive). The GI50 (SK-MEL-28) was > 100 µM (inactive), the GI50 (SK-OV-3) was > 100 µM (inactive) and the GI50 (SN12C) was > 100 µM (inactive). For the same molecule, the GI50 (UACC-257) was > 100 µM (inactive) and the GI50 (UO-31) was > 100 µM (inactive).

`C=C(Cl)[C@@](Cl)(CBr)CC[C@@H](Br)C(C)(C)Cl` was tested, and the GI50 (BT-549) was 3.66 µM (inactive), the GI50 (HCT-15) was 0.759 µM and the GI50 (HOP-62) was 0.103 µM (active). For the same molecule, the GI50 (HT-29) was 0.253 µM (active), the GI50 (KM12) was 0.228 µM (active) and the GI50 (M14) was 10.8 µM (inactive). For the same molecule, the GI50 (MDA-MB-231) was 0.211 µM (active), the GI50 (MDA-N) was 0.255 µM (active) and the GI50 (MOLT-4) was 22.9 µM (inactive). The GI50 (NCI-H23) was 8.02 µM (inactive), the GI50 (NCI-H460) was 0.108 µM (active) and the GI50 (OVCAR-3) was 0.506 µM (active). For the same molecule, the GI50 (OVCAR-4) was 0.912 µM (active), the GI50 (RXF 393) was 0.126 µM (active) and the GI50 (SF-539) was 0.141 µM (active). For the same molecule, the GI50 (SK-MEL-28) was 0.394 µM (active), the GI50 (SK-OV-3) was 9.16 µM (inactive) and the GI50 (SN12C) was 2.11 µM (inactive). The GI50 (UACC-257) was 0.557 µM (active) and the GI50 (UO-31) was 0.834 µM (active).

In the case of `C=C(C)C(=O)OC1CC2(C)OC2CC(OC(C)=O)/C(C)=C/C2OC(=O)C(=C)C21` (stereo not given), the GI50 (BT-549) is reported as 1.09 µM (active), the GI50 (HCT-15) is reported as 0.566 µM and the GI50 (HOP-62) is reported as 13.1 µM (inactive). For the same molecule, the GI50 (HT-29) was 1.31 µM (inactive), the GI50 (KM12) was 11.2 µM (inactive) and the GI50 (M14) was 3.01 µM (inactive). The GI50 (MDA-MB-231) was 6.49 µM (inactive), the GI50 (MDA-N) was 2.73 µM (inactive) and the GI50 (MOLT-4) was 0.441 µM (active). For the same molecule, the GI50 (NCI-H23) was 2.76 µM (inactive), the GI50 (NCI-H460) was 1.73 µM (inactive) and the GI50 (OVCAR-3) was 2.26 µM (inactive). For the same molecule, the GI50 (OVCAR-4) was 9.48 µM (inactive), the GI50 (RXF 393) was 2.04 µM (inactive) and the GI50 (SF-539) was 2.82 µM (inactive). The GI50 (SK-MEL-28) was 0.724 µM (active), the GI50 (SK-OV-3) was 29 µM (inactive) and the GI50 (SN12C) was 2.52 µM (inactive). The GI50 (UACC-257) was 6.5 µM (inactive) and the GI50 (UO-31) was 2.68 µM (inactive).
